Results on eleven compounds are retold here after US10501421B1, “Substituted benzimidazoles as modulators of Ras signaling” (VANDERBILT UNIVERSITY, priority 2017, dated 2019).

Where a name gives a salt, the structure may show the parent alone. Read-outs that look alike come from different tables or passages of the source.

Test [1] deals with H727 lung cancer cell lines (G12V K-Ras mutation). The experiment in a line: Inhibition of cancer cell proliferation (CellTiter-Glo). It counts as cell-based. Conditions: Homo sapiens, NCI-H727, 72 h, read-out: Cell proliferation activity (H727 cancer cell line proliferation IC50). An outline of the steps: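 H727 cells (K-Ras G12V), 1000/well, plated overnight then exposed to a compound dose range for 3 days at 37 °C. Proliferation by CellTiter-Glo, normalized to DMSO; IC50 from four-parameter variable-slope fit.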
Background: Cellular ATP, detected with luciferase, serves as a proxy for viable cell number.

Test [2] addresses Ras GEF SOS (Son of Sevenless) (Homo sapiens, UniProt Q07889). The experiment in a line: SOS-mediated nucleotide exchange on Ras (BODIPY-GDP fluorescence). Conditions: SOS-mediated exchange of BODIPY-GDP for GTP on Ras. In kind it is biochemical. An outline of the steps:
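Exchange rates were taken from single-exponential fits of the fluorescence time course as BODIPY-GDP on Ras was replaced by GTP. Compound went in first, then GTP and SOS. Mean rates plotted against concentration gave EC50 by four-parameter dose-response fitting.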

Test [3] concerns the target T1, Son of Sevenless (SOS) (Homo sapiens, UniProt Q07889).
T1 sequence (Q07889 564-1049 limits assumed): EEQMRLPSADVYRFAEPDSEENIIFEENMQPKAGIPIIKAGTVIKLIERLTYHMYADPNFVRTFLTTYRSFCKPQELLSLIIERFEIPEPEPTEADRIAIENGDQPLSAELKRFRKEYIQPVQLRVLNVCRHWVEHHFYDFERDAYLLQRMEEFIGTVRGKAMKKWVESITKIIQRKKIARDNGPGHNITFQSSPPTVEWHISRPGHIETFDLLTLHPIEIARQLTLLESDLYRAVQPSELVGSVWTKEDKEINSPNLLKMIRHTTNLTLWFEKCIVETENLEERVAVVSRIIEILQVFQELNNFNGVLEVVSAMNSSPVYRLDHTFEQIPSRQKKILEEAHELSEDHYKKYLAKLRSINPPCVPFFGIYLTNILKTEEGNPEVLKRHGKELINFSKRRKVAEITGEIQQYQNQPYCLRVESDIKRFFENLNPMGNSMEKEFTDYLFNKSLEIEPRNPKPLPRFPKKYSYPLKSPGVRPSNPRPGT
Description: Binding to SOS, fluorescence polarization anisotropy (FPA) probe displacement. Conditions: displacement of FITC-conjugated probe (Example 285), affinity calculated from IC50. An outline of the steps:
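Test compounds were titrated against SOS pre-bound to a fluorescein-labelled probe, with anisotropy plotted versus compound concentration. Binding affinities were derived from IC50 values obtained by four-parameter dose-response fitting.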

[4] abbreviates: H727 cells, 3 days treatment, CellTiter-Glo.

Sequence of Ras GEF SOS (Son of Sevenless) (P01112 1-166 partner limits assumed, one chain of several): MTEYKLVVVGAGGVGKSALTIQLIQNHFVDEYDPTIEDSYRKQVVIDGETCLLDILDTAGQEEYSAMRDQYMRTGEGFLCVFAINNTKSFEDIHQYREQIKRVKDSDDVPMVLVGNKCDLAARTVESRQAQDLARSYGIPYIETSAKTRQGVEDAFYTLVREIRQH

Take `Cc1cc(CN2CCC(O)CC2)c2nc(N3CCNCC3)n(Cc3cc(C)c(F)c(C)c3)c2c1` [Example 126, 1-((1-(4-fluoro-3,5-dimethylbenzyl)-6-methyl-2-(piperazin-1-yl)-1H-benzo[d]imidazol-4-yl)methyl)piperidin-4-ol trifluoroacetate]: the IC50 in test [1] fell in the range of 1 to 5 µM. Besides, the EC50 (usually the concentration needed to bring the measured effect to its halfway point) in test [2] fell in the range of 1 to 5 µM. Further, the inhibitory constant (Ki) – broadly, the dissociation constant of the complex between target and ligand, obtained from inhibition or displacement – in test [3] is 1 to 5 µM.

Consider `C=Cc1cc(Cn2c(N3CCNCC3)nc3cc(C)c(C)cc32)cc(C=C)c1F` [Example 46, 1-(4-fluoro-3,5-divinylbenzyl)-5,6-dimethyl-2-(piperazin-1-yl)-1H-benzo[d]imidazole trifluoroacetate], for which, in test [1], the IC50 was 1 to 5 µM. The compound also showed a concentration giving a half-maximal response (EC50) in test [2] of 5 to 30 µM. Moreover, in test [3], the inhibitory constant (Ki) was more than 5 µM.

Regarding `Cc1cc(Cn2c(N3CCNCC3)nc3c(CN4CCCC4)cc(Cl)cc32)cc(C)c1F` [Example 130, 6-chloro-1-(4-fluoro-3,5-dimethylbenzyl)-2-(piperazin-1-yl)-4-(pyrrolidin-1-ylmethyl)-1H-benzo[d]imidazole trifluoroacetate], in test [1], the IC50 is 1 to 5 µM. The same compound gave an EC50 in test [2] of less than 1 µM. For the same compound, the Ki in test [3] was less than 0.5 µM.

For the compound `NCC1CN(c2nc3ccc(Cl)cc3n2Cc2ccc(F)c(Cl)c2)C1` [Example 76, (1-(6-chloro-1-(3-chloro-4-fluorobenzyl)-1H-benzo[d]imidazol-2-yl)azetidin-3-yl)methanamine trifluoroacetate], the IC50 in test [1] was 1 to 5 µM. Moreover, in test [2], the EC50 is less than 1 µM. In addition, the inhibition constant (Ki) in test [3] is less than 0.5 µM.

For `CCCNCc1c(C)c(C)cc2c1nc(N1CCNCC1)n2Cc1cc(C)c(F)c(C)c1` [Example 132, N-((1-(4-fluoro-3,5-dimethylbenzyl)-5,6-dimethyl-2-(piperazin-1-yl)-1H-benzo[d]imidazol-4-yl)methyl)propan-1-amine trifluoroacetate], in test [1], the IC50 lay in the range of 1 to 5 µM. In addition, the EC50 in test [2] was less than 1 µM. The Ki in test [3] was 1 to 5 µM.

On to `Cc1cnc2nc(N3CCCC(N)C3)n(Cc3ccc(F)c(C)c3)c2c1` (stereo not drawn) [Example 240, 1-(1-(4-fluoro-3-methylbenzyl)-6-methyl-1H-imidazo[4,5-b]pyridin-2-yl)piperidin-3-amine], for which the IC50 in test [1] (setting [4]) lay within 5 to 20 µM. In test [2], this compound showed a concentration giving a half-maximal response (EC50) of 1 to 5 µM. In test [3], the Ki is more than 5 µM.

As to `Cc1cnc2nc(N3CCC(N)C3)n(Cc3ccc(F)c(C)c3)c2c1` (stereo not drawn) [Example 241, 1-(1-(4-fluoro-3-methylbenzyl)-6-methyl-1H-imidazo[4,5-b]pyridin-2-yl)pyrrolidin-3-amine], the IC50 in test [1] (setting [4]) was more than 20 µM. The compound also gave an EC50 in test [2] of 1 to 5 µM. The Ki in test [3] was more than 5 µM.

On to `Cc1cc2c(nc(N3CCNCC3)n2Cc2ccc(F)c(Cl)c2)c(-c2ccccc2C(C)C)c1C` [Example 109, 1-(3-chloro-4-fluorobenzyl)-4-(2-isopropylphenyl)-5,6-dimethyl-2-(piperazin-1-yl)-1H-benzo[d]imidazole], for which the IC50 in test [1] (setting [4]) is 1 to 5 µM. In addition, the EC50 in test [2] was in the range of 1 to 5 µM. In addition, the Ki in test [3] was 0.5 to 1 µM.

With `CCc1cc(Cn2c(N3CCNCC3)nc3cc(C)c(C)cc32)cc(CC)c1F` [Example 49, 1-(3,5-diethyl-4-fluorobenzyl)-5,6-dimethyl-2-(piperazin-1-yl)-1H-benzo[d]imidazole trifluoroacetate], the IC50 in test [1] lay in the range of 1 to 5 µM. In addition, the EC50 in test [2] fell in the range of 1 to 5 µM. Moreover, in test [3], the Ki is more than 5 µM.

Consider `Cc1cc2c(nc(N3CCNCC3)n2Cc2ccc(F)c(Cl)c2)c(-c2ccccc2)c1C` [Example 104, 1-(3-chloro-4-fluorobenzyl)-5,6-dimethyl-4-phenyl-2-(piperazin-1-yl)-1H-benzo[d]imidazole trifluoroacetate], for which the IC50 in test [1] was in the range of 1 to 5 µM. This compound also registered an EC50 in test [2] of 1 to 5 µM. Also, the Ki in test [3] is 1 to 5 µM.

Regarding `Cc1cc(Cn2c(NCC3CNC3)nc3ccc(OC(C)C(F)(F)F)nc32)ccc1F` (stereo not drawn) [Example 260, N-(azetidin-3-ylmethyl)-3-(4-fluoro-3-methylbenzyl)-5-((1,1,1-trifluoropropan-2-yl)oxy)-3H-imidazo[4,5-b]pyridin-2-amine], the IC50 in test [1] (setting [4]) was less than 1 µM. This compound also gave an EC50 in test [2] of 5 to 30 µM. Further, the Ki in test [3] is more than 5 µM.
